Reference: PubChem BioAssay (NCI)
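Method: 48-hour compound exposure of cells in 96-well plates, five concentrations, linear interpolation of endpoints. TGI: concentration producing complete growth inhibition.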

Columns and labels:
Assay in all cases: NCI tumour cell line growth inhibition, 48 h
CAKI-1 renal = system: CAKI-1 renal
DU-145 prostate = system: DU-145 prostate
EKVX NSCLC = system: EKVX NSCLC
HCT-15 colon = system: HCT-15 colon
IGROV1 ovarian = system: IGROV1 ovarian
NCI-H460 lung = system: NCI-H460 lung
SK-MEL-5 melanoma = system: SK-MEL-5 melanoma
SNB-19 CNS = system: SNB-19 CNS
SNB-75 CNS = system: SNB-75 CNS
TK-10 renal = system: TK-10 renal
UACC-62 melanoma = system: UACC-62 melanoma
UO-31 renal = system: UO-31 renal
HCC-2998 colon = system: HCC-2998 colon
SR leukemia = system: SR leukemia
OVCAR-4 ovarian = system: OVCAR-4 ovarian

Compound | TGI (CAKI-1 renal) [µM] | TGI (DU-145 prostate) [µM] | TGI (EKVX NSCLC) [µM] | TGI (HCT-15 colon) [µM] | TGI (IGROV1 ovarian) [µM] | TGI (NCI-H460 lung) [µM] | TGI (SK-MEL-5 melanoma) [µM] | TGI (SNB-19 CNS) [µM] | TGI (SNB-75 CNS) [µM] | TGI (TK-10 renal) [µM] | TGI (UACC-62 melanoma) [µM] | TGI (UO-31 renal) [µM] | TGI (HCC-2998 colon) [µM] | TGI (SR leukemia) [µM] | TGI (OVCAR-4 ovarian) [µM]
c1ccc(CC2(c3cc4ccccc4[nH]3)OCCO2)nc1 | > 100 | > 100 | > 100 | > 100 | > 100 | > 100 | > 100 | > 100 | > 100 | > 100 | > 100 | > 100 |  |  | 
Cc1ncc([N+](=O)[O-])n1CCNC(=O)Cn1c([N+](=O)[O-])cnc1C | > 100 | > 100 |  | > 100 | > 100 | > 100 | > 100 | > 100 | > 100 | > 100 | > 100 | > 100 | > 100 | > 100 | 
COc1ccc2c(c1)CCC(OS(=O)(=O)CC13CCC(CC1=O)C3(C)C)C2=O (stereo not drawn) | > 100 |  | > 100 | 92 |  | 38.6 | 39.2 | > 100 | > 100 | 95.9 | 34.8 | > 100 | 50.9 | 73.3 | > 100
CC(CCCOC(c1ccccc1)(c1ccccc1)c1ccccc1)OC(=O)Nc1ccccc1 (stereo not drawn) | 26.8 |  |  | 27.9 | 30 | 24.8 | 27.1 |  | 27.9 | 34.7 | 25.5 | 23.7 | 27.3 | 44.7 | 25
CC1=C(C(=O)Nc2ccc([N+](=O)[O-])cc2)C(c2ccccc2F)C(C(=O)Nc2ccc([N+](=O)[O-])cc2)=C(C)N1 | 68.9 |  | > 100 |  | > 100 | 69.7 | 40.6 | > 100 | 83.9 | > 100 |  | 51.7 | 29.1 |  | 89.8
CCC(=O)N/N=C(\C=C\c1cccc(O)c1)c1sc(Nc2ccc(C)cc2[N+](=O)[O-])nc1C | > 100 |  | > 100 | > 100 | > 100 | > 100 | > 100 | > 100 | > 100 | > 100 | > 100 | > 100 | > 100 | > 100 | > 100
Cc1ccc(NC(=O)C(=O)Cc2cc[n+]([O-])cc2)cc1 | > 100 |  | > 100 | > 100 | > 100 | > 100 | > 100 | > 100 | > 100 | > 100 | > 100 | > 100 | > 100 | > 100 | > 100
O=C(/C=C(\O)c1ccccc1)c1cc(-c2ccccc2)n(-c2ccccc2)n1 | 54.5 | > 100 | > 100 | > 100 | 79.9 | 98.4 | 48.7 | > 100 |  | > 100 | 13.4 | 39.9 | > 100 | 5.2 | 
CCOC(=O)C1=C(Nc2ccc(Cl)c(Cl)c2)OC/C1=N\NS(=O)(=O)c1ccc(C)cc1 | > 100 |  | > 100 |  | > 100 | > 100 | > 100 | > 100 | > 100 | > 100 | > 100 | 85.6 | > 100 |  | > 100
CC(=O)O[C@@H](C1C[C@@H](C)[C@H]2[C@@](O)(O1)[C@H](O)[C@@]1(C)C3=CC[C@H]4C(C)(C)[C@@H](OC5OCC(O)C(O)C5O)CC[C@@]45C[C@@]35CC[C@]21C)C(C)(C)O (stereo partly drawn) | > 100 | 70 | 61.6 | 71.1 | > 100 | 40.6 | 32.7 | > 100 |  | 69.5 | 40.3 | 62.2 | 27.7 | 49.8 | > 100
CC(=O)C1=CCC2c3[nH]c4ccccc4c3CCN2C1 (stereo not drawn) |  |  | > 100 | > 100 | > 100 | > 100 | > 100 | > 100 | 88.3 | > 100 |  | > 100 | > 100 | > 100 | > 100
O=C1c2ccccc2-c2c1c(-c1cccc(Br)c1)nc1ccc3ccccc3c21 | > 100 | > 100 | > 100 | > 100 |  | > 100 |  | > 100 | > 100 |  | > 100 | > 100 | > 100 |  | > 100
CCC1CN2CCC3(c4ccccc4)CC(C(=O)OC)=CC1C23 (stereo not drawn) | 33.1 |  | 34.1 | 31.9 | 47.3 | 32.5 | 30.2 | 35 | 51 | 58.6 | 30.2 | 27.1 | 30.7 | > 100 | 27.8
O=C(Nc1ccn(CCI)c(=O)n1)c1ccccc1 | > 100 |  | > 100 | > 100 | > 100 | > 100 | > 100 |  | > 100 | > 100 | > 100 | > 100 |  | > 100 | > 100
O=C(CC1C(=O)c2ccccc2C1=C1C(=O)c2ccccc2C1=O)c1ccccc1 (stereo not drawn) | > 100 |  | > 100 | > 100 | > 100 | > 100 | > 100 | > 100 | > 100 | > 100 | > 100 | > 100 | > 100 |  | > 100
CCN(CC)CCO/N=C1/C=C2CCC3C(CC[C@@]4(C)C3CC[C@]4(C)O)[C@@]2(C)CC1 (stereo partly drawn) | 20.1 | 34.5 | 42.9 | 13.7 | 21 | 15.3 | 26 | 45.4 | 9.15 | 45.1 | 8.57 | 18.9 | 19 |  | > 100
Cc1nc2c(=O)n3c4c(cccc4c2o1)CCC3 | > 100 | > 100 | > 100 | > 100 | > 100 | > 100 | > 100 | > 100 | > 100 | > 100 | > 100 | > 100 | > 100 |  | > 100
